Measurements: US7112677B2, “1H-imidazo dimers” (3M Innovative Properties Company, priority 2002, dated 2006)

What was measured:
[1] = test system: tumor necrosis factor (α); test: Cytokine Induction in Human Cells: tumor necrosis factor (α) by ELISA or IGEN Assay; format: cell-based; settings: human PBMC, incubated 18 to 24 hours, tested at 30–0.014 μM; induction at ≦10 μM
Excerpt: (§1) An in vitro human blood cell system is used to assess cytokine induction. Activity is based on the measurement of interferon and tumor necrosis factor (α) (IFN and TNF, respectively) secreted into culture media as described by Testerman et. al. In “Cytokine Induction by the Immunomodulators Imiquimod and S-27609”, Journal of Leukocyte Biology, 58, 365–372 (September, 1995).
(§2) Whole blood from healthy human donors is collected by venipuncture into EDTA vacutainer tubes. Peripheral blood mononuclear cells (PBMC) are separated from whole blood by density gradient centrifugation using Histopaque®-1077. Blood is diluted 1:1 with Dulbecco's Phosphate Buffered Saline (DPBS) or Hank's Balanced Salts Solution (HBSS). The PBMC layer is collected and washed twice with DPBS or HBSS and resuspended at 4×10^6 cells/mL in RPMI complete. The PBMC suspension is added to 48 well flat bottom sterile tissue culture plates (Costar, Cambridge, Mass. or Becton Dickinson Labware, Lincoln Park, N.J.) containing an equal volume of RPMI complete media containing test compound.
(§3) The compounds are solubilized in dimethyl sulfoxide (DMSO). The DMSO concentration should not exceed a final concentration of 1% for addition to the culture wells. The compounds are generally tested at concentrations ranging from 30–0.014 μM.
(§4) The solution of test compound is added at 60 μM to the first well containing RPMI complete and serial 3 fold dilutions are made in the wells. The PBMC suspension is then added to the wells in an equal volume, bringing the test compound concentrations to the desired range (30–0.014 μM). The final concentration of PBMC suspension is 2×10^6 cells/mL. The plates are covered with sterile plastic lids, mixed gently and then incubated for 18 to 24 hours at 37° C. in a 5% carbon dioxide atmosphere.
(§5) Following incubation the plates are centrifuged for 10 minutes at 1000 rpm (˜200×g) at 4° C. The cell-free culture supernatant is removed with a sterile polypropylene pipet and transferred to sterile polypropylene tubes. Samples are maintained at −30 to −70° C. until analysis. The samples are analyzed for interferon (a) by ELISA and for tumor necrosis factor (α) by ELISA or IGEN Assay.
Tumor necrosis factor (α) (TNF-α) concentration is determined using ELISA kits available from Biosource International, Camarillo, Calif. Alternately, the TNF-α concentration can be determined by Origen® M-Series Immunoassay and read on an IGEN M-8 analyzer from IGEN International, Gaithersburg, Md. The immunoassay uses a human TNF-α capture and detection antibody pair from Biosource International, Camarillo, Calif. Results are expressed in pg/mL.

interferon (α) = test: Cytokine Induction in Human Cells: interferon (α) by ELISA; format: cell-based; settings: human PBMC, incubated 18 to 24 hours, tested at 30–0.014 μM; induction at ≦10 μM
Excerpt: as §1, §2, §3, §4, §5
Interferon (α) concentration is determined by ELISA using a Human Multi-Species kit from PBL Biomedical Laboratories, New Brunswick, N.J. Results are expressed in pg/mL.

[2] = Solubility in DMSO for testing; format: physicochemical; design: key: *: the compound was not adequately soluble in DMSO to permit testing; settings: printed as * in the cytokine columns
Protocol: as §3
Compounds of the invention were tested for their ability to induce cytokine biosynthesis using the method described above.

Compound	melting point	Tumor Necrosis Factor (α) [1]	Interferon (α) (interferon (α))	adequately soluble in DMSO to permit testing [2]
CCCCc1nc2c(N)nc3ccccc3c2n1CCCCNC(=O)NCCCCn1c(CCCC)nc2c(N)nc3ccccc3c21 [Example 1, N,N′-bis[4-(4-amino-2-butyl-1H-imidazo[4,5-c]quinolin-1-yl)butyl]urea]	218.1 to 219.7 °C	+ (at concentrations of ≦10 μM the compound induced the indicated cytokine)	+ (at concentrations of ≦10 μM the compound induced the indicated cytokine)	
CCCCc1nc2c(N)nc3ccccc3c2n1CCCCNC(=O)Nc1cccc(NC(=O)NCCCCn2c(CCCC)nc3c(N)nc4ccccc4c32)c1 [Example 2, N,N″-1,3-phenylenebis{N′-[4-(4-amino-2-butyl-1H-imidazo[4,5-c]quinolin-1-yl)butyl]urea}]	160.3 to 165.6 °C	+ (at concentrations of ≦10 μM the compound induced the indicated cytokine)	+ (at concentrations of ≦10 μM the compound induced the indicated cytokine)	
CCCCc1nc2c(N)nc3ccccc3c2n1CCCCNC(=O)Nc1ccc(Oc2ccc(NC(=O)NCCCCn3c(CCCC)nc4c(N)nc5ccccc5c43)cc2)cc1 [Example 3, N-[4-(4-amino-2-butyl-1H-imidazo[4,5-c]quinolin-1-yl)butyl]-N′-(4-{4-[({[4-(4-amino-2-butyl-1H-imidazo[4,5-c]quinolin-1-yl)butyl]amino}carbonyl)amino]phenoxy}phenyl)urea]	152.1 to 156.1 °C	+ (at concentrations of ≦10 μM the compound induced the indicated cytokine)	+ (at concentrations of ≦10 μM the compound induced the indicated cytokine)	
CCCCc1nc2c(N)nc3ccccc3c2n1CCCCNC(=O)N[C@H]1CC[C@H](NC(=O)NCCCCn2c(CCCC)nc3c(N)nc4ccccc4c32)CC1 [Example 4, N,N″-trans-1,4-cyclohexylenebis{N′-[4-(4-amino-2-butyl-1H-imidazo[4,5-c]quinolin-1-yl)butyl]urea}]	184.5 to 188.8 °C	+ (at concentrations of ≦10 μM the compound induced the indicated cytokine)	+ (at concentrations of ≦10 μM the compound induced the indicated cytokine)	
COCCc1nc2c(N)nc3ccccc3c2n1CCOCCNS(=O)(=O)c1cccc(S(=O)(=O)NCCOCCn2c(CCOC)nc3c(N)nc4ccccc4c32)c1 [Example 5, N,N-bis(2-{2-[4-amino-2-(2-methoxyethyl)-1H-imidazo[4,5-c]quinolin-1-yl]ethoxy}ethyl)benzene-1,3-disulfonamide]	115 to 120 °C	+ (at concentrations of ≦10 μM the compound induced the indicated cytokine)	+ (at concentrations of ≦10 μM the compound induced the indicated cytokine)	
COCCc1nc2c(N)nc3ccccc3c2n1CCOCCNC(=O)c1ccc(C(=O)NCCOCCn2c(CCOC)nc3c(N)nc4ccccc4c32)cc1 [Example 6, N,N′-bis(2-{2-[4-amino-2-(2-methoxyethyl)-1H-imidazo[4,5-c]quinolin-1-yl]ethoxy}ethyl)terephthalamide]		+ (at concentrations of ≦10 μM the compound induced the indicated cytokine)	+ (at concentrations of ≦10 μM the compound induced the indicated cytokine)	
COCCc1nc2c(N)nc3ccccc3c2n1CCOCCNC(=O)NCCCCCCCCNC(=O)NCCOCCn1c(CCOC)nc2c(N)nc3ccccc3c21 [Example 7, N,N″-1,8-octanediylbis[N′-(2-{2-[4-amino-2-(methoxyethyl)-1H-imidazo[4,5-c]quinolin-1-yl]ethoxy}ethyl)urea]]	172.5 to 177 °C	+ (at concentrations of ≦10 μM the compound induced the indicated cytokine)	+ (at concentrations of ≦10 μM the compound induced the indicated cytokine)	
CCOCc1nc2c(N)nc3ccccc3c2n1CCCCCCCCCCn1c(COCC)nc2c(N)nc3ccccc3c21 [Example 8, 1-[10-(4-amino-2-ethoxymethyl-1H-imidazo[4,5-c]quinolin-1-yl)decyl]-2-ethoxymethyl-1H-imidazo[4,5-c]quinoline-4-amine]	237 to 238 °C			*
